Structures can show the parent of a compound that is named as a salt.

The target in one test is T1, SMO (Mus musculus, UniProt P56726).
T1 construct: endogenous in cells; host or cells: C3H10T1/2 (ATCC #CCL-226)
T1 sequence (P56726 33-793): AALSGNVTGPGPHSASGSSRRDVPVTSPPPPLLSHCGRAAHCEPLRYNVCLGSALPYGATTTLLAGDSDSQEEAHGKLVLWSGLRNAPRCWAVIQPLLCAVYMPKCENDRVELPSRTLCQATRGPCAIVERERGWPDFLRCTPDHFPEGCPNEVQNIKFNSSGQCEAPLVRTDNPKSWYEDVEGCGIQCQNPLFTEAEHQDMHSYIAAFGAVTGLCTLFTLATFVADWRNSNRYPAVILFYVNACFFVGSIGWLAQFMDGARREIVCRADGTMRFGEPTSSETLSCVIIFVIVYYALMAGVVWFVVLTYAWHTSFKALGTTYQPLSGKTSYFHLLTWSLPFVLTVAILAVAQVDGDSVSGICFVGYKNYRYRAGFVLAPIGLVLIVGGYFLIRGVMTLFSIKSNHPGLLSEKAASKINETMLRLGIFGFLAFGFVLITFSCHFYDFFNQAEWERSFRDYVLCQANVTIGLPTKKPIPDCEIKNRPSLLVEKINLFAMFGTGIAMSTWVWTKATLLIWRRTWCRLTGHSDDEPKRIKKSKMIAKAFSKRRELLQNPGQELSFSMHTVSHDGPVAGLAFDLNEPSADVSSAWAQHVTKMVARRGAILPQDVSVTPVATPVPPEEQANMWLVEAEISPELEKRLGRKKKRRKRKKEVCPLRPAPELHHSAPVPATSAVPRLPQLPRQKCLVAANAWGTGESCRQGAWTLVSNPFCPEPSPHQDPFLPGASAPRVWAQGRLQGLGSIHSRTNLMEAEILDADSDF
Put plainly: Smoothened (SMO)/Sonic Hedgehog (SHh) Transient Transcriptional Activation Assay (Gli-luciferase reporter in C3H10T1/2 cells). Format: cell-based, murine. The note with it: 2 uM test compound, SHh 250 ng/ml, 20 hrs. As for the experimental part: As noted above, the compounds of the invention are useful as inhibitors of SMO. Methods for determining the in vitro activity of these compounds are described below: Smoothened (SMO)/Sonic Hedgehog (SHh) Transient Transcriptional Activation Assay
On Day 1,2×10^6 C3H10T1/2 cells (ATCC #CCL-226) were split and seeded in 12 mls of growth medium Basal Medium Eagle (BME, Invitrogen #21010-046) supplemented with 2 mM L-glutamine (Invitrogen #25030-081), 0.1 units/ml penicillin and 0.1 ug/ml streptomycin (Invitrogen #15140-122), and 10% Fetal Bovine Serum (FBS, Invitrogen #16140-071) in a T-75 flask (Costar #3376). They were allowed to attach for 4 hours at 37° C., 5% CO2. The cells were then transfected using Fugene 6 (Roch #11 814 443 001) in the following reaction: 48 ul Fugene 6 and 745 ul Opti-MEM (Invitrogen #31985-070) were mixed and allowed to sit at room temperature for 5 minutes. 8 ug of pGL4.14/mGli(CS) DNA (10× murine Gli response elements and minimal CS promoter) and 0.5 ug of pEGFP DNA (Clontech) were added, gently mixed and incubated at room temperature for 20 minutes. This entire transfection mix was then added to the T-75 flask containing the cells. The cells were incubated at 37 °C, 5% C02 for 18-24 hrs.
On Day 2, the transfected cells were trypsinized and seeded into white 96 well plates (Costar #3917) in 100ul/well of growth medium at a concentration of 20,000 cells/well. The cells were allowed to recover for 4 hrs before adding serum starvation medium Dulbecco's Modified Eagle Medium (DMEM, Invitrogen #21063-029) supplemented with 2 mM L-glutamine, 0.1 units/ml penicillin and 0.1 ug/ml streptomycin, and 0.5% Calf Serum (CS, Invitrogen #26170-043). The growth media was aspirated off, and the cells were rinsed with 100 ul of starvation media. 95 ul of starvation media was then added to each well. The cells were incubated for 20 hrs at 37 °C, 5% C02.
On Day 3, cells were dosed with test compounds at a final concentration ranging from 2 uM to 2 nM. Immediately after dosing cells with compounds, recombinant human sonic hedgehog (SHh, R&D Systems #1845-SH) was add to a final concentration of 250 ng/ml. A 25 ug vial of SHh was reconstituted with 250 ul PBS/0.1% BSA to give a 100 ng/ul working stock. This working stock was then diluted 1:20 in starvation media. The transfected cells were incubated with compounds and SHh for 20 hrs at 37 °C, 5% C02.
Luciferase assays were conducted on Day 4 using Dual-Glo Luciferase assay system (Promega #E2940) according to Promega's protocol. Briefly, Dual-Glo luciferase reagent was made up and 100 uls were added to each well of the 96 well plate containing media. Plates were shaken at room temperature for 10 minutes, and then read on TopCount (Perkin-Elmer). The luminescence was recorded.
Regarding “N-(3-(6-(Methoxymethyl)-1-methyl-1H-benzo[d]imidazol-2-yl]cyclohexyl)-2,3-dihydrobenzo[b][1,4]dioxine-6-carboxamide and N-(3-(6-(Methoxymethyl)-1-methyl-1H-benzo[d]imidazol-2-yl]cyclohexyl)-2,3-dihydrobenzo[b][1,4]dioxine-6-carboxamide [Example 33]”, the “SMO % inhibition at 2 uM” value turned out to be 102%.

On to “N-(3-(6-Isopropyl-1-methyl-1H-benzo[d]imidazol-2-yl)cyclohexyl)-2,3-dihydrobenzo[b][1,4]dioxine-6-carboxamide and N-(3-(5-isopropyl-1-methyl-1H-benzo[d]imidazol-2-yl)cyclohexyl)-2,3-dihydrobenzo[b][1,4]dioxine-6-carboxamide [Example 32]”, for which the “SMO % inhibition at 2 uM” value worked out at 81%.

Staying with this test, now noted: C3H 10T1/2, 2 uM test compound, SHh 250 ng/ml, 20 hrs, read-out: SMO % inhibition at 2 uM.
Turning to `COc1cc(OC)cc(C(=O)NC2CCCC(c3nc4cc(NC(C)=O)ccc4[nH]3)C2)c1` (centres unmarked) [Example 9, N-(3-(5-Acetamido-1H-benzo[d]imidazol-2-yl)cyclohexyl)-3,5-dimethoxybenzamide], the inhibition at 2 µM was 87%.

On to `COc1cc(OC)cc(C(=O)NC2CCCC(c3nc4ccc(NS(=O)(=O)C(C)C)cc4[nH]3)C2)c1` (centres unmarked) [Example 12, 3,5-Dimethoxy-N-(3-(5-(propan-2-ylsulfonamido)-1H-benzo[d]imidazol-2-yl)cyclohexyl)], for which the inhibition at 2 µM was 62%.

Still in this test, the particulars now being: C3H 10T1/2, 2 μM test compound, SHh 250 ng/ml, 20 hrs, read-out: SMO CELL % INHIBITION @ 2 μM.
For the compound `O=C(Nc1ccc(Cl)c(C(F)(F)F)c1)N[C@@H]1CCC[C@H](c2nc3ccccc3[nH]2)C1` [Example 238, 1-[(1R,3S)-3-(1H-benzimidazol-2-yl)cyclohexyl]-3-[4-chloro-3-(trifluoromethyl)phenyl]urea], the inhibition at 2 µM stood at 114%. Same read-out and setting: with `O=C(N[C@@H]1CCCC(c2nc3ccccc3[nH]2)C1)c1ccc2c(c1)OC(F)(F)O2` (stereo partly drawn) [Example 251, N-((1R,3S)-3-(1H-benzo[d]imidaz-ol-2-yl)cyclohexyl)-2,2-difluorobenzo[d] [1,3]dioxole-5-carboxamide] the figure was 102%; with `Cc1nn(C)c2sc(C(=O)N[C@@H]3CCC[C@H](c4nc5ccccc5[nH]4)C3)cc12` [Example 204, N-[(1R,3S)-3-(1H-benzimidazol-2-yl)cyclohexyl]-1,3-dimethyl-1H-thieno[2,3-c]pyrazole-5-carboxamide triflouroacetate], 103%. Consider `COc1cc(OC)cc(C(=O)NC23CCCC(c4nc5ccccc5n4C)(C2)C3)c1` [Example 245, 3,5-dimethoxy-N-(5-(1-methyl-1H-benzo[d]imidaz-ol-2-yl)bicyclo[3.1.1]heptan-1-yl)benzamide], for which the inhibition at 2 µM was 49%. Same read-out and setting: with `COCCNc1ccc(C(=O)N[C@@H]2CCC[C@H](c3nc4cc(C(F)(F)F)ccc4[nH]3)C2)cn1` [Example 292, 6-[(2-methoxyethyl)amino]-N-{(1R,3S)-3-[5-(trifluoromethyl)-1H-benzimidazol-2-yl]cyclohexyl} nicotinamide HCl] the figure was 104%. On to `O=C1CCc2cc(C(=O)N[C@@H]3CCC[C@H](c4nc5ccccc5[nH]4)C3)ccc2N1` [Example 220, N-[(1R,3S)-3-(1H-benzimidazol-2-yl)cyclohexyl]-2-oxo-1,2,3,4-tetrahydroquin-oline-6-carboxamide triflouroacetate], for which the inhibition at 2 µM was 81%.

As to `COc1cccc2c1OCC(C(=O)NC1CCCC(c3nc4ccccc4[nH]3)C1)C2` (centres unmarked) [Example 133, N-[3-(1H-benzimidazol-2-yl)cyclohexyl]-8-methoxychrom-ane-3-carboxamide triflouroacetate], the inhibition at 2 µM was 85%.

As to `Cn1c(C23CCCC(NC(=O)c4ccc5c(c4)OC(F)(F)O5)(C2)C3)nc2ccccc21` [Example 250, 2,2-difluoro-N-(5-(1-methyl-1H-benzo[d]imidaz-ol-2-yl)bicyclo[3.1.1]heptan-1-yl)benzo[d][1,3] dioxole-5-carboxamide], the inhibition at 2 µM worked out at 94%. For the compound `O=C(NC12CCCC(c3nc4cc(Cl)ccc4[nH]3)(C1)C2)c1cc2c(cn1)OCCO2` [Example 271, N-[5-(5-chloro-1H-benzimidazol-2-yl)bicyclo[3.1.1]hept-1-yl]-2,3-dihydro[1,4]di-oxino[2,3-c]pyridine-7-carboxamide], the inhibition at 2 µM was found to be 84.7%. For the compound `O=C(N[C@@H]1CCC[C@H](c2nc3ccccc3[nH]2)C1)c1cnc2c(c1)OCCO2` [Example 243, N-((1R,3S)-3-(1H-benzo[d]imidaz-ol-2-yl)cyclohexyl)-2,3-dihydro-[1,4]dioxino[2,3-b]pyridine-7-carboxamide], the inhibition at 2 µM is 96%. With `Cc1[nH]c2ccc(C(=O)N[C@@H]3CCC[C@H](c4nc5ccccc5[nH]4)C3)cc2c1C` [Example 192, N-[(1R,3S)-3-(1H-benzimidazol-2-yl)cyclohexyl]-2,3-dimethyl-1H-indole-5-carboxamide triflouroacetate], the inhibition at 2 µM is 109%. As to `O=C1COc2ccc(C(=O)N[C@@H]3CCC[C@H](c4nc5ccccc5[nH]4)C3)cc2N1` [Example 173, N-[(1R,3S)-3-(1H-benzimidazol-2-yl)cyclohexyl]-3-oxo-3,4-dihydro-2H-1,4-benzoxazine-6-carboxamide HCl], the inhibition at 2 µM worked out at 97%. On to `Cn1c(=O)[nH]c2cc(C(=O)NC3CCCC(c4nc5ccccc5[nH]4)C3)ccc21` (centres unmarked) [Example 143, N-[3-(1H-benzimidazol-2-yl)cyclohexyl]-1-methyl-2-oxo-2,3-dihydro-1H-benzimidazole-5-carboxamide triflouroacetate], for which the inhibition at 2 µM came out at 87%. On to `COC(=O)CCCC(=O)NC1CCCC(c2nc3ccccc3[nH]2)C1` (centres unmarked) [Example 103, methyl 5-{[3-(1H-benzimidazol-2-yl)cyclohexyl]-amino}-5-oxopentanoate triflouroacetate], for which the inhibition at 2 µM is 94%. As for `O=C(N[C@@H]1CCC[C@H](c2nc3ccccc3[nH]2)C1)c1ccc2ccccc2c1` [Example 187, N-[(1R,3S)-3-(1H-benzimidazol-2-yl)cyclohexyl]-2-naphthamide triflouroacetate], the inhibition at 2 µM stood at 94%. Turning to `O=C(CCC(=O)c1ccccc1)NC1CCCC(c2nc3ccccc3[nH]2)C1` (centres unmarked) [Example 89, N-[3-(1H-benzimidazol-2-yl)cyclohexyl]-4-oxo-4-phenylbutanamide triflouroacetate], the inhibition at 2 µM was 96%. As to `CN1C[C@H](O)CC1C(=O)NC1CCCC(c2nc3ccccc3[nH]2)C1` (stereo partly drawn) [Example 113, (4R)-N-[3-(1H-benzimidazol-2-yl)cyclohexyl]-4-hydroxy-1-methyl-L-prolinamide triflouroacetate], the inhibition at 2 µM came to 93%. Turning to `C[S+]([O-])c1ccc(C(=O)NC2CCCC(c3nc4ccccc4[nH]3)C2)cc1` (centres unmarked) [Example 126, N-[3-(1H-benzimidazol-2-yl)cyclophexyl]-4-(methylsulfinyl) benzamide triflouroacetate], the inhibition at 2 µM worked out at 83%.

Turning to `Cc1cccc(=O)n1CC(=O)N[C@@H]1CCC[C@H](c2nc3cc(C(F)(F)F)ccc3[nH]2)C1` [Example 282, 2-(6-methyl-2-oxopyridin-1(2H)-yl)-N-{(1R,3S)-3-[5-(trifluoromethyl)-1H-benzimidazol-2-yl]cyclohexyl} acetamide HCl], the inhibition at 2 µM stood at 85.2%. Turning to `O=C(NC12CCCC(c3nc4ccccc4[nH]3)(C1)C2)c1ccc(C(=O)c2ccccc2)cc1` [Example 278, N-[5-(1H-benzimidazol-2-yl)bicyclo[3.1.1]hept-1-yl]-4-benzoylbenz-amide], the inhibition at 2 µM is 99.9%.

For the compound `O=C(N[C@@H]1CCC[C@H](c2nc3ccccc3[nH]2)C1)c1ccc2c(c1)CCCO2` [Example 265, N-[(1R,3S)-3-(1H-benzimidazol-2-yl)cyclohexyl] chromane-6-carboxamide], the inhibition at 2 µM was 103%. Still for that read-out and setting: the result for `Cn1c([C@H]2CCC[C@@H](NC(=O)c3ccc4c(c3)OCCO4)C2)nc2ccccc21` [Example 66, N-[(1R,3S)-3-(1-methyl-1H-benzimidazol-2-yl)cyclohexyl]-2,3-dihydro-1,4-benzodioxine-6-carboxamide HCl] reads 107%.

Source of the values: patent US20100029615A1, “BENZIMIDAZOLE DERIVATIVES” (priority 2006, published 2010).
